Reference: US20170223976A1, “MODIFIED MILK POWDER CONTAINING 1,5-ANHYDRO-D-GLUCITOL” (NIHON STARCH CO., LTD., priority 2015, published 2017)

System: PC12 cells
Assay: Determination of neurite outgrowth rate in PC12 cells (image count)
Assay type: cell-based
Conditions: for cells showing a neurite outgrowth rate of 1 time or more / cells showing a neurite outgrowth rate of 2 times or more: 96 hours
Method: PSG-1 belongs to an immunoglobulin super family which includes some having the function of promoting neurogenesis. Then, the influence of 1,5-AG upon neuritogenesis was investigated. This was evaluated in a test system using PC12 cells which are generally used for the evaluation of neuritogenesis.
PC12 cells (Lot No. 48, Lot No. 51) (RIKEN cell bank, material 1)
DMEM medium prepared by adding 0.1% of FBS, 0.1% of HS, 1 ng/mL NGF and 1% of penicillin-streptomycin
PC12 cells were initiated in a T-75 flask by using a growth medium to be cultured in a CO2 incubator (5% CO2, 37° C., moistening). Medium exchange was carried out every 2 days, the cells were collected when 80% confluence was reached, and cells having a passage number of 2 were used in this test. Stated more specifically, after the cells were washed with D-PBS (−), the cells were separated by using 0.05% trypsin, and a growth medium was added to neutralize trypsin. Then, the supernatant was removed by centrifugation (180 g, 5 minutes), a growth medium was added to stir the cells, the number of the cells was counted by using a corpuscle calculating board, and a growth medium was used to achieve a target concentration (2.0×10^3 cells/100 μL).
A test was carried out at five concentrations (1.6, 8, 40, 200 and 1,000 μg/mL) of 1,5-AG. Stated more specifically, a 1,5-AG aqueous solution having a concentration of 100 mg/mL was diluted with water to prepare 100 times-concentrated solutions having concentrations of 0.16, 0.8, 4, 20 and 100 mg/mL. These 100 times-concentrated solutions were each added to a test medium in a ratio of 1/100 to achieve final concentrations of 1.6, 8, 40, 200 and 1,000 μg/mL and sterilized with a filter to be used in the test. As a negative control, water was added to a medium in a ratio of 1/100 and sterilized with a filter to be used in the test. As a positive control, a test medium containing a 100 ng/mL nerve growth factor (NGF) was used.
A growth medium was used to adjust the cells to a concentration of 2.0×10^3 cells/100 μL/well, and the cells were scattered in a collagen-coated 96-well plate to be cultured in a CO2 incubator (5% CO2, 37° C., moistening) for 24 hours. After culture, the medium was replaced by a sample-containing test medium (100 μL), and the cells were cultured in a CO2 incubator for 96 hours. After the end of culture, an image of the cells in each well was taken with a phase difference microscope and used for the measurement of nuetrite outgrowth rate, and nuclei and cytoplasms were fluorescent dyed by using a neurite outgrowth staining kit to measure the number of living cells and the amount of neurite outgrowth. These procedures were carried out five times each.
Based on the image taken above, the total number of cells, the number of cells showing the same or higher neurite outgrowth than the cell length and the number of cells showing neurites having a length 2 times or more than the cell length were measured from the image of the cells. The percentage (%) of cells showing neurite outgrowth was calculated from the measurement values.

Compound: OC[C@H]1OC[C@H](O)[C@@H](O)[C@@H]1O [1,5-AG, 1,5-anhydro-D-glucitol]
- cells showing a neurite outgrowth rate of 1 time or more (40 μg/mL 1,5-AG): 15.8%
- cells showing a neurite outgrowth rate of 2 times or more (40 μg/mL 1,5-AG): 10.3%
- cells showing a neurite outgrowth rate of 1 time or more (200 μg/mL 1,5-AG): 18.7%
- cells showing a neurite outgrowth rate of 2 times or more (200 μg/mL 1,5-AG): 10.4%
- cells showing a neurite outgrowth rate of 2 times or more, relative to non-added section (40 and 200 μg/mL 1,5-AG): about 2 times
